# Measured values: patent publication US20240092758A1, “IMIDAZOLO INDAZOLE COMPOUNDS AS JAK INHIBITORS” (Theravance Biopharma R&D IP, LLC, priority 2021, published 2024)
# Assay: Pharmacokinetics in plasma and lung in mouse after oral aspiration administration
# Type: in vivo
# Settings: male CD1 mice; for Lung Tissue AUC(0-24) / AUC(0-t): 0.2 mg/mL, two 25 μL increments; for Lung Tissue:Plasma AUC ratio: lung AUC to plasma AUC; for AUC(0-t): mouse, inhaled or intranasal, 0.01 mg/mouse, plasma, read-out: Plasma AUC(0-24)
# Procedure, shortened: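 Male CD1 mice given 0.2 mg/mL compound in 20% propylene glycol/pH 4 citrate buffer, two 25 μL increments by oral aspiration into the trachea under isoflurane. Plasma and lung homogenate sampled 0.167–24 hr and measured by LC-MS/MS. Non-compartmental analysis gave AUC(0-inf); lung-to-plasma ratio from lung (μg*hr/g) over plasma (μg*hr/mL) AUC.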
Structure (SMILES),Lung Tissue AUC(0-24),Lung Tissue:Plasma AUC ratio,AUC(0-t) [ng·h/mL]
"CCc1cc(O)ccc1-c1ccc2c(-c3nc(C4=CCNC4)c[nH]3)n[nH]c2c1F [Compound 1, 4-(3-(4-(2,5-dihydro-1H-pyrrol-3-yl)-1H-imidazol-2-yl)-7-fluoro-1H-indazol-6-yl)-3-ethylphenol]",B (B denotes a value between 50 and 100),C (C denotes a ratio between 100 and 200),500 to 1000
"CCc1cc(O)ccc1-c1ccc2c(-c3nc(C4=CCNCC4)c[nH]3)n[nH]c2c1F [Compound 2, 3-ethyl-4-(7-fluoro-3-(4-(1,2,3,6-tetrahydropyridin-4-yl)-1H-imidazol-2-yl)-1H-indazol-6-yl)phenol]",B (B denotes a value between 50 and 100),C (C denotes a ratio between 100 and 200),500 to 1000
"CCc1cc(O)ccc1-c1ccc2c(-c3nc(C4=CCNCC4)c[nH]3)n[nH]c2c1 [Compound 3, 3-ethyl-4-(3-(4-(1,2,3,6-tetrahydropyridin-4-yl)-1H-imidazol-2-yl)-1H-indazol-6-yl)phenol]","A (For the Lung Tissue AUC(0-24), A denotes a value between 100 and 200)",C (C denotes a ratio between 100 and 200),500 to 1000
